Measured values as given in USRE47689E1, “Compounds for treating spinal muscular atrophy” (PTC Therapeutics, Inc., priority 2011, dated 2019).

Tests used:
Smn protein = Smn protein assay in cultured cells (SMN HTRF); format: cell-based, human; conditions: 48 hours; for EC1.5x (concentration giving 1.5-fold Smn protein increase): SMA Type 1 patient fibroblast cells (GM03813), 7-point concentration curve, SMN HTRF, concentration producing 1.5 times Smn protein vs DMSO vehicle control, read-out: EC1.5x for Smn protein expression; for maximum fold (Fold) increase of Smn protein: SMA patient fibroblast cells, 7-point concentration data, fold increase relative to vehicle control (SMN HTRF)
Description: The SMN HTRF (homogeneous time resolved fluorescence) assay is used to quantify the level of Smn protein in SMA patient fibroblast cells treated with test compounds.
Protocol. Cells are thawed and cultured in DMEM-10% FBS for 72 hours. Cells are trypsinized, counted and resuspended to a concentration of 25,000 cells/mL in DMEM-10% FBS. […] 1 μL of test compound solution is transferred to cell-containing wells and cells are incubated for 48 hours in a cell culture incubator (37° C., 5% CO2, 100% relative humidity). Triplicate samples are set up for each test compound concentration. After 48 hours, the supernatant is removed from the wells and 25 μL of the RIPA lysis buffer, containing protease inhibitors, is added to the wells and incubated with shaking at room temperature for 1 hour. 25 μL of the diluent is added and then 35 μL of the resulting lysate is transferred to a 384-well plate, where each well contains 5 μL of the antibody solution (1:100 dilution of anti-SMN d2 and anti-SMN kryptate in SMN reconstitution buffer). The plate is centrifuged for 1 minute to bring the solution to the bottom of the wells, then incubated overnight at room temperature. Fluorescence for each well of the plate at 665 nm and 620 nm is measured on an EnVision multilabel plate reader (Perkin-Elmer).
The normalized fluorescence signal is calculated for each sample, Blank and vehicle control well by dividing the signal at 665 nm by the signal at 620 nm. Normalizing the signal accounts for possible fluorescence quenching due to the matrix effect of the lysate. The ΔF value (a measurement of Smn protein abundance) for each sample well is calculated by subtracting the normalized average fluorescence for the Blank control wells from the normalized fluorescence for each sample well and then dividing this difference by the normalized average fluorescence for the Blank control wells. The resulting ΔF value for each sample well represents the Smn protein abundance from test compound-treated samples. The ΔF value for each sample well is divided by the ΔF value for the vehicle control wells to calculate the fold increase in Smn protein abundance relative to the vehicle control.
An EC1.5x for Smn protein expression between >3 μM and ≤10 μM is indicated by one star (*), an EC1.5x between >1 and ≤3 μM is indicated by two stars (**), an EC1.5x between >0.3 μM and ≤1 μM is indicated by three stars (***) and an EC1.5x≤0.3 μM is indicated by four stars (****).

[1] = test system: SMN2 minigene (full length SMN2 minigene mRNA containing SMN2 exon 7); experiment: SMN2 minigene mRNA splicing RT-qPCR assay in cultured cells; format: cell-based, human; conditions: HEK293H cells stably transfected with SMN2-A minigene, 24 hours, 7-point concentration curve, 1.5-fold relative to vehicle-treated cells; for EC (1.5-fold): Homo sapiens, HEK293-H, read-out: EC1.5x for production of full length SMN2 mRNA
Description: The reverse transcription-quantitative PCR-based (RT-qPCR) assay is used to quantify the level of the full length SMN2 minigene mRNA containing SMN2 exon 7 in a HEK293H cell line stably transfected with said minigene and treated with a test compound.
Protocol. HEK293H cells stably transfected with the SMN2-A minigene construct described above (10,000 cells/well) are seeded in 200 μL of cell culture medium (DMEM plus 10% FBS, with 200 μg/mL hygromycin) in 96-well flat-bottom plates and the plate is immediately swirled to ensure proper dispersal of cells, forming an even monolayer of cells. Cells are allowed to attach for at least 4-6 hours. […] A solution of test compound (1 μL, 200× in DMSO) is added to each cell-containing well and the plate is incubated for 24 hours in a cell culture incubator (37° C., 5% CO2, 100% relative humidity). 2 replicates are prepared for each test compound concentration. The cells are then lysed in Cells-To-Ct lysis buffer and the lysate is stored at −80° C.
The combination of these three oligonucleotides detects only SMN1 or SMN2 minigenes (RT-qPCR) and will not detect endogenous SMN1 or SMN2 genes.
The SMN forward and reverse primers are used at final concentrations of 0.4 μM.
The SMN2-minigene GAPDH mix (15 μL total volume) is prepared by combining 7.5 μL of 2×RT-PCR buffer, 0.4 μL of 25×RT-PCR enzyme mix, 0.75 μL of 20×GAPDH primer-probe mix, 4.0075 μL of water, 2 μL of 10-fold diluted cell lysate, 0.06 μL of 100 μM SMN forward primer, 0.06 μL of 100 μM SMN reverse primer, and 0.225 μL of 100 μM SMN probe.
PCR is carried out at the following temperatures for the indicated time: Step 1: 48° C. (15 min); Step 2: 95° C. (10 min); Step 3: 95° C. (15 sec); Step 4: 60° C. (1 min); then repeat Steps 3 and 4 for a total of 40 cycles.
Each reaction mixture contains both SMN2-A minigene and GAPDH primers/probe sets (multiplex design), allowing simultaneous measurement of the levels of two transcripts.
Two SMN spliced products are generated from the SMN2 minigene. The first spliced product containing exon 7, corresponding to full length SMN2 mRNA, is called SMN2mini FL. The second one lacking exon 7 is called SMN2mini Δ7.
The amplification efficiency E is calculated from the slope of the amplification curve for SMN2mini FL and GAPDH individually. The abundances of SMN2mini FL and GAPDH are then calculated as […], where Ct is the threshold value for each amplicon. The abundance of SMN2mini FL is normalized to GAPDH abundance. The normalized SMN2mini FL abundance from test compound-treated samples is then divided by normalized SMN2mini FL abundance from vehicle-treated cells to determine the level of SMN2 FL mRNA relative to vehicle control.
An EC1.5x for production of full length SMN2 mRNA between >3 μM and ≤30 μM is indicated by one star (*), an EC1.5x between >1 μM and ≤3 μM is indicated by two stars (**), an EC1.5x between >0.3 μM and ≤1 μM is indicated by three stars (***), an EC1.5x between >0.1 μM and ≤0.3 μM is indicated by four stars (****) and an EC1.5x≤0.1 μM is indicated by five stars (*****).

Structure (SMILES) | EC1.5x (concentration giving 1.5-fold Smn protein increase) (Smn protein) [nM] | maximum fold (Fold) increase of Smn protein (Smn protein) | EC (1.5-fold) [1] [µM] | EC1.5x for production of full length SMN2 mRNA [1]
Cc1cn2cc(-c3cc4ccc(C5CCN(C6COC6)CC5)cc4oc3=O)nc2cn1 [Compound 878, 3-(6-methylimidazo[1,2-a]pyrazin-2-yl)-7-[1-(oxetan-3-yl)piperidin-4-yl]-2H-chromen-2-one] | 300 to 1000 | ***** (fold increase >1.65) | < 0.1 | 
CC1CN(c2ccc3cc(-c4nc5ccccc5o4)c(=O)oc3c2)C(C)CN1 (centres unmarked) [Compound 86, 3-(1,3-benzoxazol-2-yl)-7-(2,5-dimethylpiperazin-1-yl)-2H-chromen-2-one] |  | * (maximum fold increase of ≤1.2) | 3 to 30 | 
Cc1cc2oc(-c3cc4ccc(N5CCN(C)CC5)cc4oc3=O)cc2c(C)n1 [Compound 832, 3-(4,6-dimethylfuro[3,2-c]pyridin-2-yl)-7-(4-methylpiperazin-1-yl)-2H-chromen-2-one] |  | * (maximum fold increase of ≤1.2) | 1 to 3 | 
CN1CCN(c2ccc3cc(-c4ccc5nccn5c4)c(=O)oc3c2)CC1 [Compound 978, 3-(imidazo[1,2-a]pyridin-6-yl)-7-(4-methylpiperazin-1-yl)-2H-chromen-2-one] |  | ** (fold increase between >1.2 and ≤1.35) | 1 to 3 | 
Cc1cn2cc(-c3cc4ccc(N5C[C@@H](C)N[C@@H](C)C5)cc4oc3=O)nc2c(C)n1 [Compound 517, 3-(6,8-dimethylimidazo[1,2-a]pyrazin-2-yl)-7-[(3R,5S)-3,5-dimethylpiperazin-1-yl]-2H-chromen-2-one] | < 300 | ***** (fold increase >1.65) | < 0.1 | 
Cl.O=c1oc2cc(C3CCNCC3)ccc2cc1-c1nc2c(Cl)cccc2s1 [Cpd 18, 3-(4-chloro-1,3-benzothiazol-2-yl)-7-(piperidin-4-yl)-2H-chromen-2-one hydrochloride] |  | * (maximum fold increase of ≤1.2) | 0.3 to 1 | 
Cc1cn2cc(-c3cc4ccc(N5CCN(C)CC5)cc4oc3=O)cc(F)c2n1 [Compound 982, 3-(8-fluoro-2-methylimidazo[1,2-a]pyridin-6-yl)-7-(4-methylpiperazin-1-yl)-2H-chromen-2-one] | < 300 | ***** (fold increase >1.65) | < 0.1 | 
CCN1[C@H](C)CN(c2ccc3cc(-c4cn5cc(C)ncc5n4)c(=O)oc3c2)C[C@@H]1C [Compound 797, 7-[(3R,5S)-4-ethyl-3,5-dimethylpiperazin-1-yl]-3-(6-methylimidazo[1,2-a]pyrazin-2-yl)-2H-chromen-2-one] | < 300 | **** (fold increase between >1.5 and ≤1.65) | < 0.1 | 
Cc1cn2cc(-c3cc4ccc(N5CCC6(CC5)CNC6)cc4oc3=O)nc2c(C)n1 [Compound 976, 7-(2,7-diazaspiro[3.5]non-7-yl)-3-(6,8-dimethylimidazo[1,2-a]pyrazin-2-yl)-2H-chromen-2-one] | 1000 to 3000 | *** (fold increase between >1.35 and ≤1.5) | < 0.1 | 
O=c1oc2cc(N3CCNCC3)ccc2cc1-c1ccc2nccn2c1 [Compound 980, 3-(imidazo[1,2-a]pyridin-6-yl)-7-(piperazin-1-yl)-2H-chromen-2-one] |  | *** (fold increase between >1.35 and ≤1.5) | 0.3 to 1 | 
Cc1cn2cc(-c3cc4ccc(C5CCN(C)CC5)cc4oc3=O)nc2c(C)n1 [Compound 748, 3-(6,8-dimethylimidazo[1,2-a]pyrazin-2-yl)-7-(1-methylpiperidin-4-yl)-2H-chromen-2-one] | < 300 | ***** (fold increase >1.65) | < 0.1 | 
C[C@@H]1CN(c2ccc3cc(-c4cc5ncccn5c4)c(=O)oc3c2)C[C@H](C)N1 [Compound 580, 7-[(3R,5S)-3,5-dimethylpiperazin-1-yl]-3-(pyrrolo[1,2-a]pyrimidin-7-yl)-2H-chromen-2-one] |  | * (maximum fold increase of ≤1.2) | 1 to 3 | 
Cc1nc2ccc(-c3cc4ccc(C5=CCNCC5)cc4oc3=O)nn2c1C1=CCNCC1 [Cpd 845, 3-[2-methyl-3-(1,2,3,6-tetrahydropyridin-4-yl)imidazo[1,2-b]pyridazin-6-yl]-7-(1,2,3,6-tetrahydropyridin-4-yl)-2H-chromen-2-one] |  | * (maximum fold increase of ≤1.2) |  | 
COc1ccc(-c2cc3c(F)cc(N4CCN(C)CC4)cc3oc2=O)cc1OC [Compound 405, 3-(3,4-dimethoxyphenyl)-5-fluoro-7-(4-methylpiperazin-1-yl)-2H-chromen-2-one] |  | ** (fold increase between >1.2 and ≤1.35) | 3 to 30 | 
Cc1csc2nc(-c3cc4ccc(N5CCNCC5)cc4oc3=O)cn12.Cl.Cl.Cl [Compound 141, 3-(3-methylimidazo[2,1-b][1,3]thiazol-6-yl)-7-(piperazin-1-yl)-2H-chromen-2-one hydrochloride (1:3)] |  | * (maximum fold increase of ≤1.2) |  | ** (between >1 μM and ≤3 μM)
